Each structure is given as a SMILES string. Where a name gives a salt, the structure may show the parent alone. Bounds are passed on as bounds.

For the assay, the target named is recombinant human PARP1 (Homo sapiens, UniProt P09874). The assay is described as follows: PARP1 fluorescence polarization binding assay. The conditions noted are these: binding IC50, GST-tagged PARP1 20 nM, PARPi-FL probe 3 nM, 4 h at RT. Here is the method: In some embodiments, the biological assay is described in the Examples herein. In some embodiments, the biological assay measures PARP-1 binding by way of fluorescence polarization measurements. In some embodiments, binding of a test compound to recombinant human PARP-1 reduces the amount of binding of a fluorescent probe, and consequently reduces the detected level of fluorescence polarization. In some test compound stock solutions are prepared in a solvent, e.g., DMSO, and are serially diluted into a range of concentrations, e.g., 15 concentrations, 14 concentrations, 13 concentrations, 12 concentrations, 11 concentrations, 10 concentrations, 9 concentrations, 8 concentrations, 7 concentrations, 6 concentrations, or 5 concentrations, by a dilution factor, e.g., a 10-fold dilution factor, a 9-fold dilution factor, an 8-fold dilution factor, a 7-fold dilution factor, a 6-fold dilution factor, a 5-fold dilution factor, a 4-fold dilution factor, a 3-fold dilution factor, or a 2-fold dilution factor. In some embodiments, the serial dilutions, e.g., 100 nL of serial dilution, 90 nL of serial dilution, 80 nL of serial dilution, 70 nL of serial dilution, 60 nL of serial dilution, 50 nL of serial dilution, 30 nL of serial dilution, 20 nL of serial dilution, or 10 nL of serial dilution, are added to a multi-welled plate, e.g., a 1536-well plate, a 384-well plate, or a 96-well plate. In some embodiments, PARP-1, e.g., GST-tagged PARP-1, is diluted in assay buffer, e.g., 50 μL of assay buffer, 40 μL of assay buffer, e.g., 30 μL of assay buffer, 20 μL of assay buffer, 10 μL of assay buffer, or 5 μL of assay buffer, and is added to the plate. In some embodiments, the plate is centrifuged, e.g., at 1000 rpm for 1 min, and incubated, e.g., incubated for 30 minutes at room temperature (RT). In some embodiments, a fluorescent probe, e.g., 10 μL of 6 nM PARPi-FL (TOCRIS, Cat #6461), is diluted in an assay buffer and is added to the plate. In some embodiments, the final concentrations of PARP-1 and fluorescent probe are 20 nM and 3 nM, respectively, in a total volume of 20 μL. In some embodiments, the plate is centrifuged, e.g., at 1000 rpm for 1 minute, and the assay plate is incubated, e.g., for 4 h at RT. In some embodiments, the samples in each well are read using a plate reader, e.g., an Envision instrument using excitation=480 nm, and emission wavelength=FITC FP-P pol 535 nm & FITC FP-S pol 535 nm). In some embodiments, percent inhibition is calculated from mP values using Inhibition (%)=[1−(mPc−mPL)/(mPH−mPL)]×100%, where mPc, mPL, and mPH are the mP values of test compound, Low controls, and High controls, respectively. In some embodiments, binding IC50 values are calculated using XLFit (equation 201: y=A+((B−A)/(1+((x/C)^D))), where A=bottom, B=top, C=IC50, and D=slope) with a floating top and bottom for curves.
Sequence of recombinant human PARP1 (P09874 whole entry): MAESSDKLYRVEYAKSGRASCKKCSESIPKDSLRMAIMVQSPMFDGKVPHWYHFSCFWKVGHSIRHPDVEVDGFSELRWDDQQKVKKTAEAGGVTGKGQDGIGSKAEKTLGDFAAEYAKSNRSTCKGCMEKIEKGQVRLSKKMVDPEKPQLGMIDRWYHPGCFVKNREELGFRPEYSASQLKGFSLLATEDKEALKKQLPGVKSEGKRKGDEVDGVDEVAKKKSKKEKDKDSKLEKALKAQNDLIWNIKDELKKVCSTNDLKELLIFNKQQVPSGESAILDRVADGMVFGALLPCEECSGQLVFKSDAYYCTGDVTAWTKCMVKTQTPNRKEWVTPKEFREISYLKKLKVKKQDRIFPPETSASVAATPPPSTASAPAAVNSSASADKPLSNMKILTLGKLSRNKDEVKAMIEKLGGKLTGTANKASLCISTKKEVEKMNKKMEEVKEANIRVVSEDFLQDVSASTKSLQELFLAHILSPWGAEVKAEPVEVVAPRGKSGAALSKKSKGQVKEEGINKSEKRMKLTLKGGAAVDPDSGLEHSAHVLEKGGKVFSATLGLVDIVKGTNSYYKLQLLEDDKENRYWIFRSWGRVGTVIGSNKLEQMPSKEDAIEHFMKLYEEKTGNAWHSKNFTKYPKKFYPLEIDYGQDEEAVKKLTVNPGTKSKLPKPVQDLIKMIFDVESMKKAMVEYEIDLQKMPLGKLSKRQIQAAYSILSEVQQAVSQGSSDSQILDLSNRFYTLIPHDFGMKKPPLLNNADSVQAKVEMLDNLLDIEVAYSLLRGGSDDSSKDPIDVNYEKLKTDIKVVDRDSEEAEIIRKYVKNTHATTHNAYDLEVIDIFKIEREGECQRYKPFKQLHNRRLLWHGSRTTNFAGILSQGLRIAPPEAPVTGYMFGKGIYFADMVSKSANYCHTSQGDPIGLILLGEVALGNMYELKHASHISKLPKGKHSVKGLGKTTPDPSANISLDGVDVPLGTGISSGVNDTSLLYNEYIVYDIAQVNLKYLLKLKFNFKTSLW
Compounds of the present disclosure were tested in a PARP1 fluorescence polarization binding assay at Pharmaron (Beijing, P.R. China). In this biochemical assay, binding of test compound to recombinant human PARP1 reduces the amount of binding of a fluorescent probe, and consequently reduces the detected level of fluorescence polarization. Test compound stock solutions were prepared in DMSO and then serially diluted into 10 concentrations by 3-fold dilution in a 384-well plate using a TECAN EVO200. 60 nL of each dilution was transferred to the plate using an Echo550 (Labcyte), and then 10 μL 40 nM GST-tagged PARP1 (BPS Bioscience, Cat #80501), diluted in assay buffer (50 mM Tris pH 8.0, 0.001% Triton X-100, 10 mM MgCl2, 150 mM NaCl), was added to the plate. After a centrifugation at 1000 rpm for 1 min, the assay plate was incubated for 30 min at RT. 10 μL 6 nM PARPi-FL (TOCRIS, Cat #6461), diluted using assay buffer, was then added to the plate. The final concentrations of PARP1 and PARPi-FL were 20 nM and 3 nM, respectively, in a total volume of 20 μL. […]
`CCc1cc2ncc(CN3CCCN(c4ccc(C(=O)NC)nc4)CC3)cc2[nH]c1=O` [Compound No. 6, 5-(4-((7-ethyl-6-oxo-5H-1,5-naphthyridin-3-yl)methyl)-1,4-diazepan-1-yl)-N-methylpyridine-2-carboxamide]: the IC50 – broadly, the midpoint of a concentration-inhibition curve – was under 100 nM.

As for `CCc1cc2ncc(CN3CC4CN(c5ccc(C(=O)NC)nc5)CC4C3)cc2[nH]c1=O` (stereo not shown) [Compound No. 7, 5-(5-((7-ethyl-6-oxo-5,6-dihydro-1,5-naphthyridin-3-yl)methyl)hexahydropyrrolo[3,4-c]pyrrol-2(1H)-yl)-N-methylpicolinamide], the IC50 lay in the range of 100 to 3000 nM.

Consider `CCc1cc2ncc(CN3CC4(C3)CN(c3ccc(C(=O)NC)nc3)C4)cc2[nH]c1=O` [Compound No. 9, 5-(6-((7-ethyl-6-oxo-5,6-dihydro-1,5-naphthyridin-3-yl)methyl)-2,6-diazaspiro[3.3]heptan-2-yl)-N-methylpicolinamide formate], for which the 50% inhibitory concentration (IC50) is under 100 nM.

On to `CCc1cc2ncc(CNC3CC(Nc4ccc(C(=O)NC)nc4)C3)cc2[nH]c1=O` (stereo not shown) [Compound No. 29, 5-((3-(((7-ethyl-6-oxo-5,6-dihydro-1,5-naphthyridin-3-yl)methyl)amino)cyclobutyl)amino)-N-methylpicolinamide], for which the IC50 was 100 to 3000 nM.

The record behind these values is patent US20240132522A1, “HETEROCYCLIC COMPOUNDS AND METHODS OF USE THEREOF” (1cBio, Inc., priority 2022, published 2024).
